Measurements published in patent publication US12590062B2, “PD-1/PD-L1 inhibitors” (Gilead Sciences, Inc., priority 2017, dated 2026).
pEC50, pIC50: −log10 of the molar value.

What was measured:
PD-1/PD-L1 = PD-1/PD-L1 (Homo sapiens, UniProt Q9NZQ7); assay: PD-1/PD-L1 biochemical protein-protein interaction assay (ALPHA); format: binding; details: 0.3 nM His tagged PD-L1, 2.5 nM biotinylated Fc-PD-1, 60 minutes at 25° C., read-out: IC50 PD-L1-PD-1 Alpha IC50-mono PD-L1-fcP-D1
In short: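 Compounds are tested for blocking the PD-1/PD-L1 extracellular-domain interaction using an ALPHA bead assay, in which inhibition lowers the luminescent signal. Reactions run 60 min at 25° C with 0.3 nM His-PD-L1 and 2.5 nM biotinylated Fc-PD-1. IC50 values come from four-parameter fits.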

PD-1/PD-L1 interaction = molecular target: T1, PD-1/PD-L1 interaction (Homo sapiens, UniProt Q9NZQ7); assay: PD-1/PD-L1 NFAT reporter co-culture assay; format: cell-based; details: Jurkat PD-1 NFAT-luciferase cells co-cultured with aAPC-PD-L1 CHO cells, 6 hrs at 37° C.; read-out: EC50 NFAT Luciferase
T1 construct: expressed in transfected cells; host or cells: CHO cells (aAPC-PD-L1) co-cultured with Jurkat cells overexpressing PD-1 and an NFAT-luciferase reporter
T1 sequence (Q9NZQ7 19-290): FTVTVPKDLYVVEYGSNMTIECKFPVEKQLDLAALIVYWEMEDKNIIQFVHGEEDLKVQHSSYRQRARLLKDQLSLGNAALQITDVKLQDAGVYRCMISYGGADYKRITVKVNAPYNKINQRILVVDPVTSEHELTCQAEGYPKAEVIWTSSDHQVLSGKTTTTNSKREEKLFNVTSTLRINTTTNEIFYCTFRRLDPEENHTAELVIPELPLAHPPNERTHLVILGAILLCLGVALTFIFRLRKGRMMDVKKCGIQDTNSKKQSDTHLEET
In short: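 Restoration of TCR-driven NFAT luciferase signal: 6 h, 37 °C co-culture of PD-1 Jurkat reporter cells (pre-mixed with compound) on overnight-seeded PD-L1/anti-CD3 CHO monolayer. ONE-Glo luminescence; dose-response fitted to four-parameter equation for EC50.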

Chain of PD-1/PD-L1 (Q9NZQ7 19-238 limits assumed): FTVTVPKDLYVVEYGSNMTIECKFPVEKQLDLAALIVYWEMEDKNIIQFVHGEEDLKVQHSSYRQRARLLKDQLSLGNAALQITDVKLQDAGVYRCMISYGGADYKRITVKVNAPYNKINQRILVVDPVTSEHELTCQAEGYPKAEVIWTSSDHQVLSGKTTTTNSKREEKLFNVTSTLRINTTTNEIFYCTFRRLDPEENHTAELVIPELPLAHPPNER

Row | pIC50 (PD-1/PD-L1) | pEC50 (PD-1/PD-L1 interaction) | Compound
1 | 9.52 | 6.06 | Cc1c(COc2cc(OCc3cncc(C#N)c3)c(CNC[C@@H](O)CC(=O)O)cc2Cl)cccc1-c1cccc(-n2cc(CN)nn2)c1C [Example 386, (S)-4-((4-((3′-(4-(aminomethyl)-1H-1,2,3-triazol-1-yl)-2,2′-dimethyl-[1,1′-biphenyl]-3-yl)methoxy)-5-chloro-2-((5-cyanopyridin-3-yl)methoxy)benzyl)amino)-3-hydroxybutanoic acid]
2 | 9.10 | 6.06 | COc1nc(OCc2cccc(-c3cccc(COc4nc(OC)c(CNC[C@@H](O)CC(=O)O)cc4C)c3C)c2C)c(C)cc1CNC[C@@H](O)CC(=O)O [Example 119, (3S,3′S)-4,4′-((((((2,2′-dimethyl-[1,1′-biphenyl]-3,3′-diyl)bis(methylene))bis(oxy))bis(2-methoxy-5-methylpyridine-6,3-diyl))bis(methylene))bis(azanediyl))bis(3-hydroxybutanoic acid)]
3 | 8.06 | 6.31 | Cc1c(COc2cc(OCc3cncc(C#N)c3)c(CNC(CO)CO)cc2Cl)cccc1-c1cccc(COc2cc(OCc3cncc(C#N)c3)c(CNC(CO)CO)cc2Cl)c1C [Example 281, 5,5′-((((((2,2′-dimethyl-[1,1′-biphenyl]-3,3′-diyl)bis(methylene))bis(oxy))bis(4-chloro-6-(((1,3-dihydroxypropan-2-yl)amino)methyl)-3,1-phenylene))bis(oxy))bis(methylene))dinicotinonitrile]
4 | 7.77 | 5.86 | COc1nc(OCc2cccc(-c3cccc(COc4ccc(CNCCO)c(OC)n4)c3C)c2C)ccc1CNCCO [Example 21, 2,2′-((((((2,2′-dimethyl-[1,1′-biphenyl]-3,3′-diyl)bis(methylene))bis(oxy))bis(2-methoxypyridine-6,3-diyl))bis(methylene))bis(azanediyl))bis(ethan-1-ol)]
5 | 6.34 | 6.02 | CCOC(=O)CNCc1cc(Cl)c(O[C@H]2CCc3c(-c4cccc5c4CC[C@@H]5Oc4nc(OC)c(CNCC(=O)OCC)cc4Cl)cccc32)nc1OC [Example 287, Diethyl 2,2′-((((((1S,1′S)-2,2′,3,3′-tetrahydro-1H,1′H-[4,4′-biindene]-1,1′-diyl)bis(oxy))bis(5-chloro-2-methoxypyridine-6,3-diyl))bis(methylene))bis(azanediyl))diacetate]
6 | 9.52 | 6.07 | Cc1c(COc2cc(OCc3cncc(C(N)=O)c3)c(CNC[C@@H](O)CC(=O)O)cc2Cl)cccc1-c1cccc(COc2cc(OCc3cncc(C(N)=O)c3)c(CNC[C@@H](O)CC(=O)O)cc2Cl)c1C [Example 222, (3S,3′S)-4,4′-((((((2,2′-dimethyl-[1,1′-biphenyl]-3,3′-diyl)bis(methylene))bis(oxy))bis(2-((5-carbamoylpyridin-3-yl)methoxy)-5-chloro-4,1-phenylene))bis(methylene))bis(azanediyl))bis(3-hydroxybutanoic acid)]
7 | 6.81 | 4.98 | Cc1c(COc2cc(OCc3cncc(C#N)c3)c(CNCc3ccccn3)cc2Br)cccc1-c1cccc(COc2cc(OCc3cncc(C#N)c3)c(CNCc3ccccn3)cc2Br)c1C [Example 275, 5,5′-((((((2,2′-dimethyl-[1,1′-biphenyl]-3,3′-diyl)bis(methylene))bis(oxy))bis(4-bromo-6-(((pyridin-2-ylmethyl)amino)methyl)-3,1-phenylene))bis(oxy))bis(methylene))dinicotinonitrile]
8 | 7.25 | ≤ 4.30 | CCOc1nc(OCc2cccc(-c3cccc(COc4ccc(CNCCO)c(OCC)n4)c3C)c2C)ccc1CNCCO [Example 271, 2,2′-((((((2,2′-dimethyl-[1,1′-biphenyl]-3,3′-diyl)bis(methylene))bis(oxy))bis(2-ethoxypyridine-6,3-diyl))bis(methylene))bis(azanediyl))bis(ethan-1-ol)]
9 | 7.58 | 5.99 | Cc1c(COc2ccc(CNCCO)cc2Cl)cccc1-c1cccc(COc2cc(OCc3cncc(C#N)c3)c(CNCCO)cc2Cl)c1C [Example 71, 5-((4-chloro-5-((3′-((2-chloro-4-(((2-hydroxyethyl)amino)methyl)phenoxy)methyl)-2,2′-dimethyl-[1,1′-biphenyl]-3-yl)methoxy)-2-(((2-hydroxyethyl)amino)methyl)phenoxy)methyl)nicotinonitrile]
10 | 10.19 | 7.21 | Cc1c(-c2ccc(OCCNC[C@@H](O)CC(=O)O)cc2)cccc1-c1cccc2c1CC[C@@H]2Oc1nc(OCc2cncc(C#N)c2)c(CNC[C@@H](O)CC(=O)O)cc1Br [Example 676]
11 | 9.52 | 5.81 | COc1nc(OCc2cccc(-c3cccc(COc4ccc(CNC[C@H](O)CC(=O)O)c(OC)n4)c3Cl)c2Cl)ccc1CNC[C@H](O)CC(=O)O [Example 188, (3R,3′R)-4,4′-((((((2,2′-Dichloro-[1,1′-biphenyl]-3,3′-diyl)bis(methylene))bis(oxy))bis(2-methoxypyridine-6,3-diyl))bis(methylene))bis(azanediyl))bis(3-hydroxybutanoic acid)]
12 | 8.09 | 5.95 | COc1nc(/C=C/c2cccc(-c3cccc(/C=C/c4nc(OC)c(CNC[C@@H](O)CC(=O)O)cc4Cl)c3C)c2C)c(Cl)cc1CNC[C@@H](O)CC(=O)O [Example 239, (3S,3′S)-4,4′-(((((1E,1′E)-(2,2′-dimethyl-[1,1′-biphenyl]-3,3′-diyl)bis(ethene-2,1-diyl))bis(5-chloro-2-methoxypyridine-6,3-diyl))bis(methylene))bis(azanediyl))bis(3-hydroxybutanoic acid)]
13 | 5.90 | 5.24 | Cc1c(COc2cc(OCc3cncc(C#N)c3)c(CN3CCCCC3)cc2Cl)cccc1-c1cccc(COc2cc(OCc3cncc(C#N)c3)c(CN3CCCCC3)cc2Cl)c1C [Example 15, 5,5′-((((((2,2′-dimethyl-[1,1′-biphenyl]-3,3′-diyl)bis(methylene))bis(oxy))bis(4-chloro-6-(piperidin-1-ylmethyl)-3,1-phenylene))bis(oxy))bis(methylene))dinicotinonitrile]
14 | 8.60 | 4.42 | Cc1c(COc2ccc(CNC[C@@H](O)CC(=O)O)c(-c3cncc(C#N)c3)c2)cccc1-c1cccc(COc2ccc(CNC[C@@H](O)CC(=O)O)c(-c3cncc(C#N)c3)c2)c1C [Example 272, (3S,3′S)-4,4′-((((((2,2′-dimethyl-[1,1′-biphenyl]-3,3′-diyl)bis(methylene))bis(oxy))bis(2-(5-cyanopyridin-3-yl)-4,1-phenylene))bis(methylene))bis(azanediyl))bis(3-hydroxybutanoic acid)]
15 | 8.64 | 4.47 | Cc1nc(OCc2cccc(-c3cccc(COc4ccc(CNC[C@@H](O)CC(=O)O)c(C)n4)c3C)c2C)ccc1CNC[C@@H](O)CC(=O)O [Example 156, (3S,3′S)-4,4′-((((((2,2′-dimethyl-[1,1′-biphenyl]-3,3′-diyl)bis(methylene))bis(oxy))bis(2-methylpyridine-6,3-diyl))bis(methylene))bis(azanediyl))bis(3-hydroxybutanoic acid)]
16 | 10.19 | 7.46 | Cc1c(-c2ccc(OCCNC[C@@H](O)CC(=O)O)cc2)cccc1-c1cccc2c1CC[C@@H]2Oc1nc(OCc2cc(C#N)cc(C#N)c2)c(CNC[C@@H](O)CC(=O)O)cc1Br [Example 753]
